Source: ChEMBL document CHEMBL3137667, “[Drug-induced liver injury; fourteenth updated edition of the bibliographic database of liver injuries and related drugs]” (Gastroenterol Clin Biol, 2004)

What was measured:
[1] = human
[2] = human; remark: listed apart in the source
[3] = human; remark: listed apart in the source
[4] = human; remark: listed apart in the source
[5] = human; remark: listed apart in the source
[6] = human, serum
[7] = Times to onset, minimal and maximal, observed in the indexed observations. [column 'DELAI' in source]; conditions: human
[8] = human, serum, 4383 h
[9] = human, serum; remark: listed apart in the source
[10] = human; remark: listed apart in the source
[11] = human; remark: listed apart in the source
[12] = Presence of at least one case with successful reintroduction. [column 'REINT' in source]; conditions: human
[13] = human; remark: listed apart in the source
[14] = Highest frequency of moderate liver toxicity observed during clinical trials, expressed as a percentage. [column '% BIOL' in source]; conditions: human
[15] = Highest frequency of acute liver toxicity observed during clinical trials, expressed as a percentage. [column '% AIGUE' in source]; conditions: human
[16] = Proposed mechanism(s) of liver damage. [column 'MEC' in source]; conditions: human
[17] = human; remark: listed apart in the source
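Throughout, for Hepatotoxicity (association with vascular disease): count of indexed literature references reporting vascular liver injury in humans, e.g. peliosis hepatitis, hepatic veno-occlusive disease or Budd-Chiari syndrome.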
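Throughout, for Hepatotoxicity (benign tumour): value is a count of indexed literature references citing a benign tumour confirmed by histopathology.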
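Throughout, for Hepatotoxicity (choleostasis): human cholestatic liver injury, shown by histopathology or by peak ALT or AST elevation over alkaline phosphatase ratio below 2, value counts indexed literature reports.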
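Throughout, for Hepatotoxicity (chronic liver disease): chronic liver injury confirmed by histopathology or persistently raised serum aminotransferase activity beyond 6 months, value given as the count of indexed literature references.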
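Throughout, for Hepatotoxicity (cirrhosis): value is a count of indexed literature references reporting cirrhosis confirmed by histopathology.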
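Throughout, for Hepatotoxicity (cytolytic): human cytolytic liver injury, shown by histopathology or by a ratio above 5 of peak ALT or AST elevation to alkaline phosphatase elevation, value counts indexed references.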
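Throughout, for Hepatotoxicity (granulomatous hepatitis): value is a count of indexed literature references reporting granulomatous liver disease confirmed by histopathology.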
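Throughout, for Hepatotoxicity (malignant tumour): malignant tumour confirmed by histopathology, value gives the count of indexed literature references reporting it.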
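Throughout, for Hepatotoxicity (severe hepatitis): human clinical data: severe hepatitis, meaning potentially life-threatening liver failure or clinically observed cases, the value counts how many indexed literature references report it.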
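Throughout, for Hepatotoxicity (steatosis): steatosis confirmed by histopathology, value is the count of indexed references.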

NC(=O)c1cccnc1 [NIACINAMIDE]
Hepatotoxicity (malignant tumour) [1]: 0
Hepatotoxicity (cytolytic) [2]: 1
Hepatotoxicity (benign tumour) [3]: 0
Hepatotoxicity (severe hepatitis) [4]: 0
Hepatotoxicity (granulomatous hepatitis) [5]: 0
Hepatotoxicity (acute) [6]: 2
Hepatotoxicity (time to onset) [7]: < 2 months - 3 months
Hepatotoxicity (chronic liver disease) [8]: 0
Hepatotoxicity (moderate) [9]: 1
Hepatotoxicity (choleostasis) [10]: 0
Hepatotoxicity (steatosis) [11]: 0
Hepatotoxicity (successful reintroduction) [12]: yes
Hepatotoxicity (cirrhosis) [13]: 0
Hepatotoxicity (moderate) [14]: 6.3%
Hepatotoxicity (acute) [15]: 0%
Hepatotoxicity (mechanism) [16]: Dose-dependant
Hepatotoxicity (association with vascular disease) [17]: 0

CCc1cc(C(N)=S)ccn1 [ETHIONAMIDE]
Hepatotoxicity (malignant tumour) [1]: 0
Hepatotoxicity (cytolytic) ([2]; Liver): 7
Hepatotoxicity (benign tumour) [3]: 0
Hepatotoxicity (severe hepatitis) ([4]; Liver): 2
Hepatotoxicity (granulomatous hepatitis) ([5]; Liver): 0
Hepatotoxicity (acute) [6]: 15
Hepatotoxicity (time to onset) [7]: 1 month - 2 years
Hepatotoxicity (chronic liver disease) [8]: 0
Hepatotoxicity (moderate) [9]: 11
Hepatotoxicity (choleostasis) ([10]; Liver): 6
Hepatotoxicity (steatosis) [11]: 0
Hepatotoxicity (successful reintroduction) [12]: yes
Hepatotoxicity (cirrhosis) [13]: 0
Hepatotoxicity (moderate) ([14]; Liver): 37%
Hepatotoxicity (acute) ([15]; Liver): 5.4%
Hepatotoxicity (mechanism) ([16]; Liver): Allergic
Hepatotoxicity (association with vascular disease) [17]: 0

CCC1NC(=O)c2cc(S(N)(=O)=O)c(Cl)cc2N1 (stereo not given) [QUINETHAZONE]
Hepatotoxicity (malignant tumour) [1]: 0
Hepatotoxicity (cytolytic) [2]: 0
Hepatotoxicity (benign tumour) [3]: 0
Hepatotoxicity (severe hepatitis) [4]: 0
Hepatotoxicity (granulomatous hepatitis) [5]: 0
Hepatotoxicity (acute) [6]: 1
Hepatotoxicity (time to onset) [7]: 2 months
Hepatotoxicity (chronic liver disease) [8]: 0
Hepatotoxicity (moderate) [9]: 0
Hepatotoxicity (choleostasis) [10]: 1
Hepatotoxicity (steatosis) [11]: 0
Hepatotoxicity (successful reintroduction) [12]: yes
Hepatotoxicity (cirrhosis) [13]: 0
Hepatotoxicity (moderate) [14]: 0%
Hepatotoxicity (acute) [15]: 0%
Hepatotoxicity (mechanism) [16]: Allergic
Hepatotoxicity (association with vascular disease) [17]: 0

COC(=O)[C@H](c1ccccc1Cl)N1CCc2sccc2C1 [CLOPIDOGREL]
Hepatotoxicity (malignant tumour) [1]: 0
Hepatotoxicity (cytolytic) ([2]; Liver): 4
Hepatotoxicity (benign tumour) [3]: 0
Hepatotoxicity (severe hepatitis) ([4]; Liver): 0
Hepatotoxicity (granulomatous hepatitis) ([5]; Liver): 0
Hepatotoxicity (acute) [6]: 5
Hepatotoxicity (time to onset) [7]: 4 days - 5.5 months
Hepatotoxicity (chronic liver disease) [8]: 0
Hepatotoxicity (moderate) [9]: 2
Hepatotoxicity (choleostasis) ([10]; Liver): 1
Hepatotoxicity (steatosis) [11]: 0
Hepatotoxicity (successful reintroduction) [12]: yes
Hepatotoxicity (cirrhosis) [13]: 0
Hepatotoxicity (moderate) ([14]; Liver): 3%
Hepatotoxicity (acute) ([15]; Liver): 0%
Hepatotoxicity (mechanism) ([16]; Liver): Allergic
Hepatotoxicity (association with vascular disease) [17]: 0

CC[C@@H](CO)NCCN[C@@H](CC)CO [ETHAMBUTOL]
Hepatotoxicity (malignant tumour) [1]: 0
Hepatotoxicity (cytolytic) [2]: 1
Hepatotoxicity (benign tumour) [3]: 0
Hepatotoxicity (severe hepatitis) [4]: 0
Hepatotoxicity (granulomatous hepatitis) [5]: 0
Hepatotoxicity (acute) [6]: 6
Hepatotoxicity (time to onset) [7]: 1.5 months - 2 months
Hepatotoxicity (chronic liver disease) [8]: 0
Hepatotoxicity (moderate) [9]: 1
Hepatotoxicity (choleostasis) [10]: 1
Hepatotoxicity (steatosis) [11]: 0
Hepatotoxicity (successful reintroduction) [12]: yes
Hepatotoxicity (cirrhosis) [13]: 0
Hepatotoxicity (moderate) [14]: 0%
Hepatotoxicity (acute) [15]: 0%
Hepatotoxicity (mechanism) [16]: Allergic
Hepatotoxicity (association with vascular disease) [17]: 0

CC(C)N(CCC(C(N)=O)(c1ccccc1)c1ccccn1)C(C)C (stereo not given) [DISOPYRAMIDE]
Hepatotoxicity (malignant tumour) [1]: 0
Hepatotoxicity (cytolytic) [2]: 6
Hepatotoxicity (benign tumour) [3]: 0
Hepatotoxicity (severe hepatitis) [4]: 0
Hepatotoxicity (granulomatous hepatitis) [5]: 0
Hepatotoxicity (acute) [6]: 14
Hepatotoxicity (time to onset) [7]: 2 weeks - 1 year
Hepatotoxicity (chronic liver disease) [8]: 1
Hepatotoxicity (moderate) [9]: 1
Hepatotoxicity (choleostasis) [10]: 10
Hepatotoxicity (steatosis) [11]: 0
Hepatotoxicity (successful reintroduction) [12]: yes
Hepatotoxicity (cirrhosis) [13]: 0
Hepatotoxicity (moderate) [14]: 0.3%
Hepatotoxicity (acute) [15]: 0.1%
Hepatotoxicity (mechanism) [16]: Allergic
Hepatotoxicity (association with vascular disease) [17]: 0

COc1ccc2[nH]c([S+]([O-])Cc3ncc(C)c(OC)c3C)nc2c1 (stereo not given) [OMEPRAZOLE]
Hepatotoxicity (malignant tumour) [1]: 0
Hepatotoxicity (cytolytic) [2]: 8
Hepatotoxicity (benign tumour) [3]: 0
Hepatotoxicity (severe hepatitis) [4]: 1
Hepatotoxicity (granulomatous hepatitis) [5]: 0
Hepatotoxicity (acute) [6]: 10
Hepatotoxicity (time to onset) [7]: 2 days - 1 year
Hepatotoxicity (chronic liver disease) [8]: 0
Hepatotoxicity (moderate) [9]: 24
Hepatotoxicity (choleostasis) [10]: 3
Hepatotoxicity (steatosis) [11]: 0
Hepatotoxicity (successful reintroduction) [12]: yes
Hepatotoxicity (cirrhosis) [13]: 0
Hepatotoxicity (moderate) [14]: 47%
Hepatotoxicity (acute) [15]: 3.1%
Hepatotoxicity (mechanism) [16]: Dose-dependant
Hepatotoxicity (association with vascular disease) [17]: 0

Cn1c(=O)c2[nH]cnc2n(C)c1=O.O [THEOPHYLLINE]
Hepatotoxicity (malignant tumour) [1]: 0
Hepatotoxicity (cytolytic) [2]: 1
Hepatotoxicity (benign tumour) [3]: 0
Hepatotoxicity (severe hepatitis) [4]: 0
Hepatotoxicity (granulomatous hepatitis) [5]: 0
Hepatotoxicity (acute) [6]: 1
Hepatotoxicity (time to onset) [7]: 4 days - 11 days
Hepatotoxicity (chronic liver disease) [8]: 0
Hepatotoxicity (moderate) [9]: 2
Hepatotoxicity (choleostasis) [10]: 0
Hepatotoxicity (steatosis) [11]: 0
Hepatotoxicity (successful reintroduction) [12]: yes
Hepatotoxicity (cirrhosis) [13]: 0
Hepatotoxicity (moderate) [14]: 55.6%
Hepatotoxicity (acute) [15]: 0%
Hepatotoxicity (mechanism) [16]: Dose-dependant
Hepatotoxicity (association with vascular disease) [17]: 0

CC(=O)Oc1cc(C(C)C)c(OCCN(C)C)cc1C [MOXISYLYTE]
Hepatotoxicity (malignant tumour) [1]: 0
Hepatotoxicity (cytolytic) [2]: 5
Hepatotoxicity (benign tumour) [3]: 0
Hepatotoxicity (severe hepatitis) [4]: 0
Hepatotoxicity (granulomatous hepatitis) [5]: 0
Hepatotoxicity (acute) [6]: 5
Hepatotoxicity (time to onset) [7]: 8 days - 3 months
Hepatotoxicity (chronic liver disease) [8]: 0
Hepatotoxicity (moderate) [9]: 1
Hepatotoxicity (choleostasis) [10]: 1
Hepatotoxicity (steatosis) [11]: 0
Hepatotoxicity (successful reintroduction) [12]: yes
Hepatotoxicity (cirrhosis) [13]: 0
Hepatotoxicity (moderate) [14]: 0%
Hepatotoxicity (acute) [15]: 0%
Hepatotoxicity (mechanism) [16]: Allergic, Dose-dependant
Hepatotoxicity (association with vascular disease) [17]: 0

OC(Cn1cncn1)(Cn1cncn1)c1ccc(F)cc1F [FLUCONAZOLE]
Hepatotoxicity (malignant tumour) [1]: 0
Hepatotoxicity (cytolytic) ([2]; Liver): 15
Hepatotoxicity (benign tumour) [3]: 0
Hepatotoxicity (severe hepatitis) ([4]; Liver): 7
Hepatotoxicity (granulomatous hepatitis) ([5]; Liver): 1
Hepatotoxicity (acute) [6]: 25
Hepatotoxicity (time to onset) [7]: 2 days - 10 months
Hepatotoxicity (chronic liver disease) [8]: 0
Hepatotoxicity (moderate) [9]: 84
Hepatotoxicity (choleostasis) ([10]; Liver): 13
Hepatotoxicity (steatosis) [11]: 1
Hepatotoxicity (successful reintroduction) [12]: yes
Hepatotoxicity (cirrhosis) [13]: 0
Hepatotoxicity (moderate) ([14]; Liver): 83.3%
Hepatotoxicity (acute) ([15]; Liver): 6.3%
Hepatotoxicity (mechanism) ([16]; Liver): Dose-dependant
Hepatotoxicity (association with vascular disease) [17]: 0
